Patent US20110136108A1, “XBP1(S) Protein Acting as an Adipocyte Differentiation Marker Having a Facility to Regulate Differentiation into Adipocytes, and an Application Therefor” (CATHOLICE UNIVERSITY INDUSTRY ACADEMIC COOPERATION …, priority 2008, published 2011)

System: PPARγ2 mRNA
Experiment: PPARγ2 mRNA expression during adipocyte differentiation (real-time PCR)
Format: cell-based, mouse
Settings: SFG-xbp1i cells, 50 μM rosiglitazone in induction medium
Method: From the cells subjected to differentiation, total RNA was isolated by chloroform extraction and ethanol precipitation (TRIzol Reagent, Invitrogen, Carlsbad, Calif.). Thereafter, the total RNA was used to synthesize cDNA by RT-PCR (M-MLV reverse transcriptase, Promega, MADISON, Wis.). Real-time PCR was performed using a fluorescent probe of SYBR Green (SYBR Green QPCR Master Mix (2×), TAKARA, JAPAN), with cDNA serving as a template. Relative mRNA expression levels were calculated using a comparative Ct method.
In this regard, XBP1(S) expression-knock-down 3T3-L1 precursor cells (SFG-xbp1i) were induced to differentiate into adipocytes in the presence of 0 or 50 μM rosiglitazone in an induction medium during which the relative expression levels of PPARγ2 mRNA were measured.

## CN(CCOc1ccc(CC2SC(=O)NC2=O)cc1)c1ccccn1 (stereo not shown) [rosiglitazone]
  expression level of PPARγ2 mRNA relative to absence of rosiglitazone: 20 times
